{
  "source": "patent US9603877B2",
  "about": "“Isolated nucleotide molecule and method of sensing and killing of pathogenic microorganism” (priority 2011, dated 2017)",
  "key": {"[1]": {"biological_target": "T1, Pseudomonas aeruginosa LasR, SEQ ID NO: 1 (UniProt: PSPA7_3898), in sensing device pTetR-LasR-pLuxR-GFP (Pseudomonas aeruginosa, UniProt P25084)", "T1 construct": "expressed in transfected cells; host or cells: E. coli TOP10 (plasmid pTetR-LasR-pLuxR-GFP in pSB1A2)", "T1 sequence (P25084 whole entry M144I)": "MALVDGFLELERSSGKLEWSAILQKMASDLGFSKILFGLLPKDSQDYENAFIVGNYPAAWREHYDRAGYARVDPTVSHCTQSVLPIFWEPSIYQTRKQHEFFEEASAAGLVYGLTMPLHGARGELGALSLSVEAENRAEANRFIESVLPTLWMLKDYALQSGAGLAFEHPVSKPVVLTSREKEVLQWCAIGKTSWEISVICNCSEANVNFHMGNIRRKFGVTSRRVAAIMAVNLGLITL", "assay": "Characterization/transfer function of the LasR sensing device (pTetR-LasR-pLuxR-GFP) with 3OC12HSL, GFP reporter in E. coli TOP10", "format": "cell-based, P. aeruginosa", "protocol": "Single colonies of pTetR-LasR-pLuxR-GFP (Top10) were each inoculated into 5 ml of pre-warmed supplemented M9 ampicillin for overnight culture in a shaking incubator at 37° C. After overnight growth, the cultures were diluted to OD600 of 0.002 and allowed to incubate further to OD600 of 0.5 or 5.0E7 cfu/ml under the same condition. […] The plate was incubated at 37° C. with rapid shaking in a microplate reader (Biotek) and assayed for green fluorescence. Time-series fluorescence and OD600 data were obtained at intervals of 10 mins for a total run time of 3 hrs. The measurement was zeroed with supplemented M9 to remove background fluorescence and OD600. A relative GFP production rate was derived as a ratio of background subtracted green fluorescence to OD600 value.\nThe four parameters (A, B, C, n) were estimated to obtain the best fit curve by performing a non-linear curve fitting using the experimental results. This curve fitting was performed using MATLAB Curve Fitting Toolbox (The Mathworks, Natwick, Mass., USA)."}, "[2]": {"test_system": "E. coli carrying pTetR-LasR-pLuxR-E7", "assay": "Characterization of lysis device with 3OC12HSL (OD600 of E. coli carrying pTetR-LasR-pLuxR-E7)", "format": "cell-based", "protocol": "Characterization of Lysis Device with 3OC12HSL\nOvernight cultures of pTetR-LasR-pLuxR-E7 (Top10) were diluted in supplemented M9 and harvested at an OD600 of 0.5. […] The plate was incubated at 37° C. with rapid shaking in a microplate reader (Biotek) and assayed for cell turbidity. Time-series absorbance at OD600 was obtained at intervals of 10 mins for a total run time of 6 hrs. The result was zeroed with supplemented M9 to remove background absorbance.\nThe system according to various embodiments was designed to release pyocin S5 through lysis upon detection of P. aeruginosa. To determine the lysis activity of the system, the behavior of the E7 lysis protein under the transcriptional control of the sensing device before integrating both the pyocin S5 and E7 genes into the system was characterized. […] To further confirm that the lysis activity may be sustained in the final system including pyocin S5, the morphology of E. coli containing the final system (i.e., pTetR-LasR-pLuxR-S5-pLuxR-E7; FIG. 1B) was monitored using FESEM."}},
  "data": [
    {"smiles": "CCCCCCCCCC(=O)CC(=O)N[C@H]1CCOC1=O", "note": "[3OC12HSL, N-3-oxododecanoyl homoserine lactone]", "values": [
      {"measurement": "input concentration at which the sensing device saturated", "setting": "[1]; Hill model, >3.3E-7M but <1.0E-6M", "value": "> 330", "unit": "nM"},
      {"measurement": "maximum output (GFP production rate) at saturation", "setting": "[1]; Hill model, input concentration >3.3E-7M but <1.0E-6M", "value": 1.96, "unit": "RFU per OD per minute"},
      {"measurement": "concentration at which GFP production rate peaked", "setting": "[1]; sharp increase beyond 1.0E-7M, sharp decline after peak", "value": 1000, "unit": "nM"},
      {"measurement": "growth/lysis of E. coli (OD600) at 1.0E-6 and 1.0E-4M 3OC12HSL", "setting": "[2]; 1.0E-6 and 1.0E-4M 3OC12HSL", "value": "significant reduction in optical density"},
      {"measurement": "growth/lysis of E. coli (OD600) at 1.0E-8M 3OC12HSL", "setting": "[2]; 1.0E-8M 3OC12HSL", "value": "no noticeable transition into a lysis state"},
      {"measurement": "minimal effective concentration", "setting": "[2]; Escherichia coli, 2 h, read-out: concentration causing observable cell lysis", "value": "≥ 1", "unit": "µM"}
    ]}
  ]
}
